Measured values taken from ChEMBL document CHEMBL1145388, “Pyridazinoquinolinetriones as NMDA glycine-site antagonists with oral antinociceptive activity in a model of neuropathic pain” (J Med Chem, 2007).

What was measured:
physchem = conditions: octanol/water, pH 7.4
in vivo = conditions: Sprague-Dawley, rat, po, 10 mg/kg

SMILES	logD (physchem)	bioavailability at 24 h (in vivo) [%]
O=c1c2ccc(Cl)cc2[nH]c2c(O)nn(Cc3ccsc3)c(=O)c12	1.2	1.2
COC(=O)c1ccc(Cn2nc(O)c3[nH]c4cc(Cl)ccc4c(=O)c3c2=O)cc1	1.17	7
CS(=O)(=O)O.O=c1c2ccc(Cl)cc2[nH]c2c(O)nn(Cc3cnccn3)c(=O)c12	< 0.5	37
O=c1c2ccc(Cl)cc2[nH]c2c(O)nn(Cc3cc4ccccc4o3)c(=O)c12	2.1	25
CN(C)C(=O)Nc1ccc(Cn2[nH]c(=O)c3[nH]c4cc(Cl)ccc4c(=O)c3c2=O)cc1	1.1	< 1
COCCNC(=O)c1cccc(Cn2[nH]c(=O)c3[nH]c4cc(Cl)ccc4c(=O)c3c2=O)c1	1.2	
Cc1cc(Cn2[nH]c(=O)c3[nH]c4cc(Cl)ccc4c(=O)c3c2=O)oc1C	1	
O=c1[nH]n(Cc2nccs2)c(=O)c2c(=O)c3ccc(Cl)cc3[nH]c12	< 0.5	
Cc1ccc(Cn2nc(O)c3[nH]c4cc(Cl)ccc4c(=O)c3c2=O)o1	< 0.5	
CS(=O)(=O)O.O=c1c2ccc(Cl)cc2[nH]c2c(O)nn(Cc3ccncc3)c(=O)c12	< 0.3	5

Results, then the compound that gave them:

logD (physchem)	bioavailability at 24 h (in vivo) [%]	SMILES
2.4		CC(C#Cc1cccs1)n1[nH]c(=O)c2[nH]c3cc(Cl)ccc3c(=O)c2c1=O (stereo not drawn)
	16	O=c1[nH]n(CC#Cc2ccccc2)c(=O)c2c(=O)c3ccc(Cl)cc3[nH]c12
0.9		CC(c1ccsc1)n1[nH]c(=O)c2[nH]c3cc(Cl)ccc3c(=O)c2c1=O (stereo not drawn)
< 0.5	40	O=c1[nH]n(Cc2ccno2)c(=O)c2c(=O)c3ccc(Cl)cc3[nH]c12
0.6		CCC(c1ccncc1)n1[nH]c(=O)c2[nH]c3cc(Cl)ccc3c(=O)c2c1=O (racemic)
< 0.5		C#CC(C)n1[nH]c(=O)c2[nH]c3cc(Cl)ccc3c(=O)c2c1=O (stereo not drawn)
1.9		CC(C#Cc1ccsc1)n1[nH]c(=O)c2[nH]c3cc(Cl)ccc3c(=O)c2c1=O (stereo not drawn)
1.4	28	Cc1ccsc1Cn1[nH]c(=O)c2[nH]c3cc(Cl)ccc3c(=O)c2c1=O
< 0.3	30	CC(c1ccncc1)n1[nH]c(=O)c2[nH]c3cc(Cl)ccc3c(=O)c2c1=O.CS(=O)(=O)O (racemic)
2		CC(c1cc2ccccc2o1)n1[nH]c(=O)c2[nH]c3cc(Cl)ccc3c(=O)c2c1=O (stereo not drawn)
	12	O=c1[nH]n(Cc2cc3ccccc3s2)c(=O)c2c(=O)c3ccc(Cl)cc3[nH]c12
1.3		COC(=O)c1ccc(C(C)n2[nH]c(=O)c3[nH]c4cc(Cl)ccc4c(=O)c3c2=O)cc1 (stereo not drawn)
< 0.5		O=C(O)c1ccc(Cn2[nH]c(=O)c3[nH]c4cc(Cl)ccc4c(=O)c3c2=O)cc1
1.4		CC(C#Cc1ccccc1)n1[nH]c(=O)c2[nH]c3cc(Cl)ccc3c(=O)c2c1=O (stereo not drawn)
